Where two headings read alike, the source gives them in different places.
Biological target: T1, pyocin L1 (Pseudomonas aeruginosa, UniProt T2LG16)
T1 construct: full length, 256 residues, 28413 Da; expressed in E. coli BL21(DE3)pLysS (pETPyoL1); monomer
T1 sequence (T2LG16 1-256): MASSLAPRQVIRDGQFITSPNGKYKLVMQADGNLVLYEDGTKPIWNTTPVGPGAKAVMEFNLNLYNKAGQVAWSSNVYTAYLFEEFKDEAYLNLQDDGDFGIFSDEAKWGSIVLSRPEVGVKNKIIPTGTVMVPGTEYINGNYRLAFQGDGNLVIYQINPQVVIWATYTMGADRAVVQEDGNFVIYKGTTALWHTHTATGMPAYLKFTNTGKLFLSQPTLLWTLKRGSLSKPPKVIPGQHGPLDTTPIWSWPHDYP
Type: binding

## OC[C@H]1OC(O)[C@@H](O)[C@@H](O)[C@@H]1O (stereo partly drawn) [D-mannose]
read-out: Kd
  Kd: > 50 mM

## C[C@H]1OC(O)[C@@H](O)[C@@H](O)[C@@H]1O (stereo partly drawn) [D-rhamnose]
read-out: apparent Kd
  Kd: 5 to 10 mM
